From patent US20060135773A1, “Trisubstituted nitrogen modulators of tyrosine phosphatases” (priority 2004, published 2006)

Target: T1, PTP-1B (Homo sapiens, UniProt P18031)
T1 construct: PTP-1B (purified, 1 mg/mL) as a 1:250 dilution
T1 sequence (P18031 1-321 limits assumed): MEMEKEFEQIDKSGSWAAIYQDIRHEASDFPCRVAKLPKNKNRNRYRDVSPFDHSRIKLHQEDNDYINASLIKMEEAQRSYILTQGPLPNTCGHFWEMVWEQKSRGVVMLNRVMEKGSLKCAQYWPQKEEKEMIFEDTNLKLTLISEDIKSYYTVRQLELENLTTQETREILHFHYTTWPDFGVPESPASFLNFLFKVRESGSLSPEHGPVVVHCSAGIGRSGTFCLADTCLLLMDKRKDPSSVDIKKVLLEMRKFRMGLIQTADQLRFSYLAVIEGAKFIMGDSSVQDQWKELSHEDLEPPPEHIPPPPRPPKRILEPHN
Assay: pNPP tyrosine phosphatase inhibition assay, PTP-1B
Type: biochemical
Settings: pNPP assay, PTP-1B; read-out: Activity Class (IC50 ranges)
Method: The compounds provided herein are evaluated for biological activity as inhibitors of PTP-1B using, for example, a pNPP assay can be used to screen compounds for tyrosine phosphatase inhibitory activity as described in the Examples.
A 5× stock of pNPP (p-nitrophenol phosphate) substrate is prepared as 50 mM pNPP in assay buffer. Various tyrosine phosphatase solutions can be prepared as follows: • PTP-1B (purified, 1 mg/mL) as a 1:250 dilution (to a final concentration of 4:g/mL); • TC-PTP (NEB, 1000 units in 100:L) as a 1:50 dilution (to a final concentration of 2U/10:L (4:g/mL)); • CD45 (Calbiochem, 20:g, 400 units in 100:L) as a 1:50 dilution (to a final concentration of 0.8U/10:L (4:g/mL)); • LAR (NEB, 1000 units in 200:L) as a 1:75 dilution (to a final concentration of 0.7U/10:L (4:g/mL)); and • PTP-β (UBI, #14-350, 10,000 units, 40:g/571:L) as a 1:17.5 dilution (to a final concentration of 10U/10:L (4:g/mL));
The compound to be tested is prepared as 1:16.7 and 1:50 dilutions from stock in a total volume of […] DMSO to give final concentrations of 626 and 200:M. The reaction mixtures are prepared in a 96-well microtiter plate (on ice) as 55:L assay buffer, 5:L of the diluted compound (to a final concentration of 31.3 and 10:M), 20:L of the pNPP substrate solution (to a final concentration of 10 mM) and 20:L PTPase in assay buffer. The reactants are mixed well, the plate placed in a water bath at 30° C. and incubated for 10 minutes. The reaction is then terminated by adding 100:L of 2M K2CO3 per well, and the absorbance is measured at 405 nm by conventional means.
Unless otherwise indicated, this assay was used to determine activity for the selected compounds whose activity is provided in Table 1.

Row | Compound | IC50 [nM]
1 | O=P(O)(O)C(F)(F)c1ccc(CN(Cc2ccc(Cl)c(Cl)c2)S(=O)(=O)c2ccccc2)cc1Br [Compound 68, [(4-{[Benzenesulfonyl-(3,4-dichloro-benzyl)-amino]-methyl}-2-bromo-phenyl)-difluoro-methyl]-phosphonic acid] | 250 to 499
2 | O=P(O)(O)C(F)(F)c1ccc(CN(Cc2ccc(C(F)(F)P(=O)(O)O)cc2)S(=O)(=O)Cc2ccccc2)cc1 [Compound 69, {[4-({[4-(Difluoro-phosphono-methyl)-benzyl]-phenylmethanesulfonyl-amino}-methyl)-phenyl]-difluoro-methy}-phosphonic acid] | 2500 to 25000
3 | O=P(O)(O)C(F)(F)c1ccc(CN(Cc2ccc(C(F)(F)P(=O)(O)O)cc2)S(=O)(=O)c2ccc(Oc3ccccc3)cc2)cc1 [Compound 70, [(4-{[[4-(Difluoro-phosphono-methyl)-benzyl]-(4-phenoxy-benzenesulfonyl)-amino]-methyl}-phenyl)-difluoro-methyl]-phosphonic acid] | 250 to 499
4 | O=P(O)(O)C(F)(F)c1ccc(CN(Cc2ccc(C(F)(F)P(=O)(O)O)cc2)S(=O)(=O)c2ccc3ccccc3c2)cc1 [Compound 71, [(4-{[[4-(Difluoro-phosphono-methyl)-benzyl]-(naphthalene-2-sulfonyl)-amino]-methyl}-phenyl)-difluoro-methyl]-phosphonic acid] | 250 to 499
5 | O=P(O)(O)C(F)(F)c1ccc(CN(Cc2ccc(C(F)(F)P(=O)(O)O)cc2)S(=O)(=O)c2cccc(Oc3ccccc3)c2)cc1 [Compound 72, [(4-{[[4-(Difluoro-phosphono-methyl)-benzyl]-(3-phenoxy-benzenesulfonyl)-amino]-methyl}-phenyl)-difluoro-methyl]-phosphonic acid] | 250 to 499
6 | O=P(O)(O)C(F)(F)c1ccc(CN(Cc2ccc(C(F)(F)P(=O)(O)O)cc2)S(=O)(=O)c2ccc(Cl)cc2)cc1 [Compound 73, {[4-({(4-Chloro-benzenesulfonyl)-[4-(difluoro-phosphono-methyl)-benzyl]-amino}-methyl)-phenyl]-difluoro-methyl}-phosphonic acid] | 250 to 499
7 | O=P(O)(O)C(F)(F)c1ccc(CN(Cc2ccc(C(F)(F)P(=O)(O)O)cc2)S(=O)(=O)c2cccc(-c3ccccc3)c2)cc1 [Compound 74, {[4-({(Biphenyl-3-sulfonyl)-[4-(difluoro-phosphono-methyl)-benzyl]-amino}-methyl)-phenyl]-difluoro-methyl}-phosphonic acid] | 250 to 499
8 | O=P(O)(O)C(F)(F)c1ccc(CN(Cc2ccc(C(F)(F)P(=O)(O)O)cc2)S(=O)(=O)C=Cc2ccccc2)cc1 [Compound 75, [(4-{[[4-(Difluoro-phosphono-methyl)-benzyl]-(2-phenyl-ethenesulfonyl)-amino]-methyl}-phenyl)-difluoro-methyl]-phosphonic acid] | 250 to 499
9 | O=P(O)(O)C(F)(F)c1ccc(CN(Cc2ccc(C(F)(F)P(=O)(O)O)cc2)S(=O)(=O)c2cccc(Cl)c2)cc1 [Compound 76, {[4-({(3-Chloro-benzenesulfonyl)-[4-(difluoro-phosphono-methyl)-benzyl]-amino}-methyl)-phenyl]-difluoro-methyl}-phosphonic acid] | 250 to 499
10 | O=P(O)(O)C(F)(F)c1ccc(CN(Cc2ccc(C(F)(F)P(=O)(O)O)cc2)S(=O)(=O)c2ccc(Cl)c(Cl)c2)cc1 [Compound 77, {[4-({(3,4-Dichloro-benzenesulfonyl)-[4-(difluoro-phosphono-methyl)-benzyl]-amino}-methyl)-phenyl]-difluoro-methyl}-phosphonic acid] | 250 to 499
11 | O=C(O)c1ccc(CN(Cc2ccc(C(=O)O)cc2)S(=O)(=O)c2ccccc2)cc1 [Compound 78, 4-([Benzenesulfonyl-(4-carboxybenzyl)-amino]-methyl)-benzoic acid] | > 25000
12 | O=C(O)c1ccc(CN(Cc2ccc(C(=O)O)c(Br)c2)S(=O)(=O)c2ccccc2)cc1 [Compound 79, 2-bromo-4-([Benzenesulfonyl-(4-carboxybenzyl)-amino]-methyl)-benzoic acid] | > 25000
